Measured values reported in PubChem BioAssay AID1963856 (Molecular Pharmacology Branch, DTP, NCI, 2024).

Tested on: LG0567-F671-PDC KRAS tumor spheroid viability
Assay: Anticancer human tumor LG0567-F671-PDC patient-derived lung adenocarcinoma cell line growth inhibition [KRAS2]
Details: spheroids with HUVEC and MSC; for viability, T/C: stronger effect = lower value
Procedure, shortened: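 KRAS-mutant tumor cells were grown as spheroids with HUVEC endothelial cells and human MSCs as stroma. Targeted agents were tested alone and with KRAS pathway inhibitors. Doses started at or near clinical Cmax, or 10 microM, descending half-log.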

[1] = curve of first compound, second compound 0.1 µM
[2] = curve of first compound, second compound 0.316 µM
[3] = curve of first compound, second compound 1 µM
[4] = curve of first compound, second compound 3.16 µM
[5] = second compound 0.1 µM, first compound 0.0316 µM
[6] = second compound 0.1 µM, first compound 0.1 µM
[7] = second compound 0.1 µM, first compound 0.316 µM
[8] = second compound 0.1 µM, first compound 1 µM
[9] = second compound 0.1 µM, first compound 3.16 µM
[10] = second compound 0.1 µM, first compound 10 µM
[11] = second compound 0.316 µM, first compound 0.0316 µM
[12] = second compound 0.316 µM, first compound 0.1 µM
[13] = second compound 0.316 µM, first compound 0.316 µM
[14] = second compound 0.316 µM, first compound 1 µM
[15] = second compound 0.316 µM, first compound 3.16 µM
[16] = second compound 0.316 µM, first compound 10 µM
[17] = second compound 1 µM, first compound 0.0316 µM
[18] = second compound 1 µM, first compound 0.1 µM
[19] = second compound 1 µM, first compound 0.316 µM
[20] = second compound 1 µM, first compound 1 µM
[21] = second compound 1 µM, first compound 3.16 µM
[22] = second compound 1 µM, first compound 10 µM
[23] = second compound 3.16 µM, first compound 0.0316 µM
[24] = second compound 3.16 µM, first compound 0.1 µM
[25] = second compound 3.16 µM, first compound 0.316 µM
[26] = second compound 3.16 µM, first compound 1 µM
[27] = second compound 3.16 µM, first compound 3.16 µM
[28] = second compound 3.16 µM, first compound 10 µM
[29] = curve of first compound, second compound 10 µM
[30] = second compound 10 µM, first compound 0.0316 µM
[31] = second compound 10 µM, first compound 0.1 µM
[32] = second compound 10 µM, first compound 0.316 µM
[33] = second compound 10 µM, first compound 1 µM
[34] = second compound 10 µM, first compound 3.16 µM
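Also: drug exposure lasted seven days after spheroids formed for three days.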
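For viability, T/C in this document: 100% = DMSO vehicle control viability.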

| Compound | IC50 [1] [nM] | IC50 [2] [nM] | IC50 [3] [nM] | IC50 [4] [nM] | viability, T/C [5] [%] | viability, T/C [6] [%] | viability, T/C [7] [%] | viability, T/C [8] [%] | viability, T/C [9] [%] | viability, T/C [11] [%] | viability, T/C [12] [%] | viability, T/C [13] [%] | viability, T/C [14] [%] | viability, T/C [15] [%] | viability, T/C [17] [%] | viability, T/C [18] [%] | viability, T/C [19] [%] | viability, T/C [20] [%] | viability, T/C [21] [%] | viability, T/C [23] [%] | also measured |
| --- | --- | --- | --- | --- | --- | --- | --- | --- | --- | --- | --- | --- | --- | --- | --- | --- | --- | --- | --- | --- | --- |
| CC1(C)CCC(CN2CCN(c3ccc(C(=O)NS(=O)(=O)c4ccc(NCC5CCOCC5)c([N+](=O)[O-])c4)c(Oc4cnc5[nH]ccc5c4)c3)CC2)=C(c2ccc(Cl)cc2)C1 + C=CC(=O)N1CCN(c2nc(OCC3CCCN3C)nc3c2CCN(c2cccc4cccc(C)c24)C3)CC1CC#N | < 31.6 | < 31.6 | < 31.6 | < 31.6 | 30.2 | 36.3 | 29.7 | 28.7 | 10.7 | 34 | 32.6 | 32 | 27.7 | 6.23 | 34.2 | 33.5 | 33.4 | 31.9 | 2.97 | 21.8 | IC50 (curve of first compound, second compound 0.0316 µM): < 31.6 nM; viability, T/C (second compound 0.0316 µM, first compound 0.0316 µM): 31.1%; viability, T/C (second compound 0.0316 µM, first compound 0.1 µM): 37.4%; viability, T/C (second compound 0.0316 µM, first compound 0.316 µM): 35%; viability, T/C (second compound 0.0316 µM, first compound 1 µM): 39.5%; viability, T/C (second compound 0.0316 µM, first compound 3.16 µM): 12.7%; viability, T/C (second compound 0.0316 µM, first compound 10 µM): 5.63%; viability, T/C [10]: 5.62%; viability, T/C [16]: 2.16%; viability, T/C [22]: 0.47%; viability, T/C [24]: 16.1%; viability, T/C [25]: 8.41%; viability, T/C [26]: 0.74%; viability, T/C [27]: 0.13%; viability, T/C [28]: 0.89% |
| C=CC(=O)N1CCN(c2nc(=O)n(-c3c(C)ccnc3C(C)C)c3nc(-c4c(O)cccc4F)c(F)cc23)C(C)C1 (stereo not drawn) |  |  |  |  |  |  |  |  |  |  |  |  |  |  |  |  |  |  |  |  | viability, T/C (compound 0.1 µM): 25.5% [middle of 17 runs]; viability, T/C (compound 0.316 µM): 23.7% [middle of 17 runs]; viability, T/C (compound 1 µM): 25.1% [middle of 17 runs]; viability, T/C (compound 3.16 µM): 24.4% [middle of 17 runs]; viability, T/C (compound 10 µM): 23.8% [middle of 17 runs]; IC50 (compound alone, run of 07/12/2021): < 100 nM; IC50 (compound alone, run of 07/19/2021): < 100 nM; IC50 (compound alone, run of 07/26/2021): < 100 nM |
| CC(C)NCC(C(=O)N1CCN(c2ncnc3c2C(C)CC3O)CC1)c1ccc(Cl)cc1 (stereo not drawn) + CNCc1ccccc1-c1csc(C(C)Nc2nc(C)nc3cc(OC)c(OC)cc23)c1 | > 10000 | > 10000 | 675 | < 31.6 | 78.9 | 72.3 | 53 | 62 | 70.9 | 68.2 | 54.6 | 46.7 | 54.5 | 59.1 | 60.4 | 63.5 | 52.3 | 42.8 | 48.3 | 0.25 | IC50 [29]: < 31.6 nM; viability, T/C [10]: 61.6%; viability, T/C [16]: 54.6%; viability, T/C [22]: 42.2%; viability, T/C [24]: 0.18%; viability, T/C [25]: 0.11%; viability, T/C [26]: 1.4%; viability, T/C [27]: 0.12%; viability, T/C [28]: 0.97%; viability, T/C [30]: 0.84%; viability, T/C [31]: 0.44%; viability, T/C [32]: 0.13%; viability, T/C [33]: 0.12%; viability, T/C [34]: 2.26%; viability, T/C (second compound 10 µM, first compound 10 µM): 0.6% |
| CC1COCCN1c1cc(-c2ccnn2C)c2ccnc(-c3ccn[nH]3)c2n1 (stereo not drawn) + C=CC(=O)N1CCN(c2nc(=O)n(-c3c(C)ccnc3C(C)C)c3nc(-c4c(O)cccc4F)c(F)cc23)C(C)C1 | < 10 | < 10 | < 10 | < 10 | 18.8 | 16 | 14.2 | 11.2 | 10.8 | 18.6 | 14.2 | 11 | 9.77 | 10.6 | 19.3 | 14.3 | 11.3 | 9.8 | 12.5 | 14.9 | IC50 [29]: < 10 nM; viability, T/C (second compound 0.1 µM, first compound 0.01 µM): 23.9%; viability, T/C (second compound 0.316 µM, first compound 0.01 µM): 21.8%; viability, T/C (second compound 1 µM, first compound 0.01 µM): 21.3%; viability, T/C (second compound 3.16 µM, first compound 0.01 µM): 15.7%; viability, T/C [24]: 12.8%; viability, T/C [25]: 11.3%; viability, T/C [26]: 9.54%; viability, T/C [27]: 10.3%; viability, T/C (second compound 10 µM, first compound 0.01 µM): 19.8%; viability, T/C [30]: 17.4%; viability, T/C [31]: 15.5%; viability, T/C [32]: 14.9%; viability, T/C [33]: 12.2%; viability, T/C [34]: 12.8% |
